Measured values published in patent publication US20260144796A1, “Compounds and Methods for Improving Health” (Acurx Pharmaceuticals, Inc., priority 2022, published 2026).
Values after ≈ are worked out from the molar mass of the structure shown. Read-outs that look alike come from different tables or passages of the source.

Columns and labels:
Enterococcus durans = test: MIC determination, stool Firmicute isolates; format: cell-based
gut microbiome = test: Phase 2a CDI clinical trial, gut microbiome (metagenomics); format: in vivo, human; conditions: CDI patients; for Proportion of isolated Firmicutes, Peptostreptococcaceae: baseline 2%; for Proportion of isolated Firmicutes, Other: baseline 5%; for Proportion of isolated Firmicutes, Ruminococcaceae: baseline 7%; for Proportion of isolated Firmicutes, Streptococcaceae: baseline 13%; for Proportion of isolated Firmicutes, Erysipelotrichaceae: baseline 18%; for Proportion of isolated Firmicutes, Lachnospiraceae: baseline 30%
Method: Phase 2a of this trial was an open label cohort of 10 subjects from study centers in the United States. In this cohort, 10 patients with diarrhea caused by mild or moderate C. difficile diagnosed via toxin EIA+ were treated with ibezapolstat 450 mg orally, twice daily for 10 days. All patients were followed for recurrence for 28±2 days. Stool was collected during course of therapy and at follow up. Patient fecal samples were evaluated for C. difficile culture and microbiome changes. […] Favorable microbiome changes included overgrowth of Actinobacteria and Firmicutes phylum species while on therapy. These findings support that microbiome effects may be predictive of beneficial patient outcomes including low rates of recurrence.
Phase 2a of this trial was an open label cohort of 10 subjects from study centers in the United States. In this cohort, 10 patients with diarrhea caused by mild or moderate C. difficile diagnosed via toxin EIA+ were treated with ibezapolstat 450 mg orally, twice daily for 10 days. Stool was collected during the course of therapy and at follow up.
Stool DNA was extracted using a DNAeasy Power Soil Pro kit (Qiagen, catalog number 1288-100) in a QiaCube automated DNA extraction system as previously described. (Garey K W, et al. A randomized, double-blind, placebo-controlled, single and multiple ascending dose Phase 1 study to determine the safety, pharmacokinetics and food and faecal microbiome effects of ibezapolstat administered orally to healthy subjects. J Antimicrob Chemother 2020; 75 (12): 3635-3643). Shotgun metagenomic sequencing was carried out at the University of Houston Sequencing and Gene Editing Core (Houston, TX USA) using the Nextera DNA Flex Library Prep Kit for DNA library preparation and an Illumina NextSeq 500 platform for sequencing. CLC Genomic Workbench version 12 (Qiagen) was used for metagenomic assembly and creation of the abundance table.
16S rRNA sequencing was performed to characterize microbial taxonomy as described in Gonzales-Luna 2021. The V3-V4 region of the 16S rRNA gene was sequenced using an Illumina-based sequencing platform with a minimum of 15,000 reads per sample to assess the gut microbiome community structure. Quality filtered sequence reads with at least 97% similarity were clustered into Operational Taxonomic Units (OTUs) and representative sequences from each OTU were assigned a taxonomic identity at the species level by searching against the NCBI 16S rRNA sequence database (release date Sep. 1, 2018) using NCBI BLAST+ package v2.8.1 2018.
The DNA extracted from fecal samples previously used for 16S rRNA sequencing was shotgun metagenome sequenced using an Illumina-based platform for analysis of microbiome functional genes. The functional gene profiling of the shotgun metagenome was performed using HUMAnN2 v0.11.2 pipeline.35 In the preprocessing step, quality filtering of sequencing reads was performed and followed by screening and removal of contaminant host (human) reads. Trimmomatic v0.38 was used for the filtering and trimming of raw sequence data with the default cut-off settings. The reads were searched against a human genome database in paired-end mode using bowtie2 algorithm and were discarded if they were mapped to the database. To obtain the gene family profiles, these quality-controlled metagenome sequences were first searched against a nucleotide database (ChocoPhlAn) using bowtie2 and then against a protein database (UniRef90) using diamond. All the identified gene families were annotated using UniRef90 and pathways using MetaCyc identifiers.

Clostridium tertium = test: MIC determination, stool Firmicute isolates; format: cell-based
[1] = system: Erysipelatoclostridium ramosum; test: MIC determination, stool Firmicute isolates; format: cell-based; conditions: Thomasclavelia ramosa
Dorea longicatena = test: MIC determination, stool Firmicute isolates; format: cell-based; conditions: N=1
Clostridium subterminale = test: MIC determination, stool Firmicute isolates; format: cell-based; conditions: N=1
[2] = system: Paeniclostridium sordellii; test: MIC determination, stool Firmicute isolates; format: cell-based; conditions: Paraclostridium sordellii
Flavonifractor plautii = test: MIC determination, stool Firmicute isolates; format: cell-based; conditions: N=1
[3] = 450 mg orally twice daily 10 days, day 3
[4] = 450 mg orally twice daily 10 days, day 5
[5] = 450 mg orally twice daily 10 days, day 8
[6] = 450 mg orally twice daily 10 days, day 10
[7] = 450 mg orally twice daily 10 days, day 12

**Q.** `O=c1[nH]c(NCc2ccc(Cl)c(Cl)c2)nc2ncn(CCN3CCOCC3)c12` [Ibezapolstat, 2-((3,4-dichlorobenzyl)amino)-7-(2-morpholinoethyl)-1,7-dihydro-6H-purin-6-one] was tested. Which MIC50 (Enterococcus durans; N=1) did it give?
**A.** Its MIC50 is 100 µg/mL (≈ 236 µM).

**Q.** And the MIC (Enterococcus durans; N=1, read-out: MIC Max)?
**A.** The MIC was 100 µg/mL (≈ 236 µM).

**Q.** What about the MIC (Enterococcus durans; N=1, read-out: MIC Min) of the same compound?
**A.** The MIC was 100 µg/mL (≈ 236 µM).

**Q.** What about the “Proportion of isolated Firmicutes, Eubacteriales Family XIII” value (from here on “Proportion … Eubacteriales Family XIII”) (gut microbiome; [3]) of the same compound?
**A.** The value was 2%.

**Q.** What about the “Proportion of isolated Firmicutes, Peptostreptococcaceae” value (“Proportion … Peptostreptococcaceae” for short) (gut microbiome; [3]) of the same compound?
**A.** The value was 1%.

**Q.** And the “Proportion of isolated Firmicutes, Other” value (gut microbiome; [3])?
**A.** Its value is 9%.

**Q.** And the “Proportion of isolated Firmicutes, Ruminococcaceae” value (“Proportion … Ruminococcaceae” below) (gut microbiome; [3])?
**A.** Its value is 25%.

**Q.** What about the “Proportion of isolated Firmicutes, Streptococcaceae” value (gut microbiome; [3]) of the same compound?
**A.** Its value is 3%.

**Q.** And the “Proportion of isolated Firmicutes, Erysipelotrichaceae” value (from here on “Proportion … Erysipelotrichaceae”) (gut microbiome; [3])?
**A.** Its value is 24%.

**Q.** And the “Proportion of isolated Firmicutes, Lachnospiraceae” value (shortened to “Proportion … Lachnospiraceae”) (gut microbiome; [3])?
**A.** The value was 37%.

**Q.** And the “Proportion … Eubacteriales Family XIII” value (gut microbiome; [4])?
**A.** Its value is 1%.

**Q.** And the “Proportion of isolated Firmicutes, Other” value (gut microbiome; [4])?
**A.** The value was 10%.

**Q.** What about the “Proportion … Ruminococcaceae” value (gut microbiome; [4]) of the same compound?
**A.** The value was 38%.

**Q.** What about the “Proportion of isolated Firmicutes, Streptococcaceae” value (gut microbiome; [4]) of the same compound?
**A.** The value was 1%.

**Q.** What about the “Proportion … Erysipelotrichaceae” value (gut microbiome; [4]) of the same compound?
**A.** Its value is 10%.

**Q.** And the “Proportion … Lachnospiraceae” value (gut microbiome; [4])?
**A.** The value was 38%.

**Q.** And the “Proportion … Eubacteriales Family XIII” value (gut microbiome; [5])?
**A.** Its value is 3%.

**Q.** And the “Proportion … Peptostreptococcaceae” value (gut microbiome; [5])?
**A.** Its value is 5%.

**Q.** What about the “Proportion of isolated Firmicutes, Other” value (gut microbiome; [5]) of the same compound?
**A.** Its value is 9%.

**Q.** What about the “Proportion … Ruminococcaceae” value (gut microbiome; [5]) of the same compound?
**A.** Its value is 30%.

**Q.** What about the “Proportion of isolated Firmicutes, Streptococcaceae” value (gut microbiome; [5]) of the same compound?
**A.** The value was 4%.

**Q.** What about the “Proportion … Erysipelotrichaceae” value (gut microbiome; [5]) of the same compound?
**A.** The value was 9%.

**Q.** What about the “Proportion of isolated Firmicutes, Veillonellaceae” value (gut microbiome; 450 mg orally twice daily 10 days, day 8, baseline 19%) of the same compound?
**A.** The value was 5%.

**Q.** And the “Proportion … Lachnospiraceae” value (gut microbiome; [5])?
**A.** Its value is 33%.

**Q.** And the “Proportion … Eubacteriales Family XIII” value (gut microbiome; [6])?
**A.** Its value is 5%.

**Q.** And the “Proportion … Peptostreptococcaceae” value (gut microbiome; [6])?
**A.** Its value is 4%.

**Q.** What about the “Proportion of isolated Firmicutes, Other” value (gut microbiome; [6]) of the same compound?
**A.** Its value is 8%.

**Q.** What about the “Proportion … Ruminococcaceae” value (gut microbiome; [6]) of the same compound?
**A.** The value was 26%.

**Q.** What about the “Proportion of isolated Firmicutes, Streptococcaceae” value (gut microbiome; [6]) of the same compound?
**A.** The value was 5%.

**Q.** And the “Proportion … Erysipelotrichaceae” value (gut microbiome; [6])?
**A.** The value was 17%.

**Q.** What about the “Proportion … Lachnospiraceae” value (gut microbiome; [6]) of the same compound?
**A.** Its value is 35%.

**Q.** And the “Proportion … Eubacteriales Family XIII” value (gut microbiome; [7])?
**A.** The value was 4%.

**Q.** What about the “Proportion … Peptostreptococcaceae” value (gut microbiome; [7]) of the same compound?
**A.** Its value is 6%.

**Q.** And the “Proportion of isolated Firmicutes, Other” value (gut microbiome; [7])?
**A.** Its value is 10%.

**Q.** What about the “Proportion … Ruminococcaceae” value (gut microbiome; [7]) of the same compound?
**A.** Its value is 24%.

**Q.** What about the “Proportion of isolated Firmicutes, Streptococcaceae” value (gut microbiome; [7]) of the same compound?
**A.** Its value is 2%.

**Q.** What about the “Proportion … Erysipelotrichaceae” value (gut microbiome; [7]) of the same compound?
**A.** Its value is 6%.

**Q.** And the “Proportion … Lachnospiraceae” value (gut microbiome; [7])?
**A.** The value was 44%.

**Q.** What about the “Actinobacteria abundance after starting treatment” value (gut microbiome; primarily Coriobacteriales) of the same compound?
**A.** Its value is “increased in abundance”.

**Q.** And the MIC50 (Clostridium tertium)?
**A.** The MIC50 was 12.5 µg/mL (≈ 29.5 µM).

**Q.** What about the MIC (Clostridium tertium; N=2, read-out: MIC Min) of the same compound?
**A.** The MIC was 3.12 µg/mL (≈ 7.38 µM).

**Q.** And the MIC (Clostridium tertium; read-out: MIC Max)?
**A.** The MIC was 12.5 µg/mL (≈ 29.5 µM).

**Q.** And the MIC50 ([1]; N=5)?
**A.** Its MIC50 is 6.25 µg/mL (≈ 14.8 µM).

**Q.** And the MIC ([1]; N=5, read-out: MIC Max)?
**A.** The MIC was 100 µg/mL (≈ 236 µM).

**Q.** What about the MIC ([1]; N=5, read-out: MIC Min) of the same compound?
**A.** The MIC was 3.12 µg/mL (≈ 7.38 µM).

**Q.** What about the MIC50 (Dorea longicatena) of the same compound?
**A.** The MIC50 was 3.12 µg/mL (≈ 7.38 µM).

**Q.** And the MIC50 (Clostridium subterminale)?
**A.** The MIC50 was 1 µg/mL (≈ 2.36 µM).

**Q.** And the MIC ([2]; read-out: MIC Max)?
**A.** The MIC was 12.5 µg/mL (≈ 29.5 µM).

**Q.** What about the MIC50 ([2]; Paeniclostridium sordellii, N=4) of the same compound?
**A.** Its MIC50 is 1.5 µg/mL (≈ 3.54 µM).

**Q.** What about the MIC ([2]; Paeniclostridium sordellii, N=4, read-out: MIC Min) of the same compound?
**A.** Its MIC is 0.75 µg/mL (≈ 1.77 µM).

**Q.** What about the MIC50 (Flavonifractor plautii) of the same compound?
**A.** Its MIC50 is 25 µg/mL (≈ 59.1 µM).
